Source: US9511064B2, “Combination therapy for the treatment of cancer and immunosuppression” (Basilea Pharmaceutica AG, priority 2012, dated 2016)

What was measured:
Type in all cases: cell-based
[1] = system: HL60 tumor cells; assay: AlamarBlue conversion cell proliferation assay, HL60 cell line; settings: combined with 4 mM metformin, 3 days incubation, read-out: concentration that inhibits the proliferation of cells by approximately 50% when combined with 4 mM metformin, HL60 cell line
Method: (§1) The in vitro anti-proliferative activity of compounds of formula (I), metformin and combinations thereof is tested in an AlamarBlue conversion cell proliferation assay (Promega) on HL60 tumor cells and the mouse mast cell line 6.5 (Colombi et al., Oncogene 2011, 30:1551-65). Cells are seeded into 96-well microtiter plates (seeding cell density is 7,000 cells per well in 150 uL Iscove's medium) and test compounds are added (compounds of formula (I) are added from a 10 mM stock solution in DMSO, metformin from a freshly prepared 1 M solution in culture medium). Plates are incubated for 3 days at 37°, 5% CO2 and proliferation is determined by AlamarBlue staining (0.1 vol % added to cultures and incubated for further 4-5 hours). The conversion of AlamarBlue is proportional to live cell number and is read with a fluorescence plate reader (Ex/Em 535/595 nm). Growth is normalized to the untreated controls.

[2] = system: mouse mast cell line 6.5; assay: AlamarBlue conversion cell proliferation assay, 6.5 cell line; settings: combined with 4 mM metformin, 3 days incubation, read-out: concentration that inhibits the proliferation of cells by approximately 50% when combined with 4 mM metformin, 6.5 cell line
Method: as §1

[3] = system: HL60 tumor cells and the mouse mast cell line 6.5; assay: AlamarBlue conversion cell proliferation assay, general statements without cell line; settings: metformin alone at 4 mM

| Compound | IC50 [1] | IC50 [2] | anti-proliferative activity on its own [3] |
| --- | --- | --- | --- |
| COC(=O)[C@H]1[C@H]2C[C@@H]3c4[nH]c5cc(OC)ccc5c4CCN3C[C@H]2C[C@@H](OC(=O)c2cc(OC)c(OC(=O)OCc3ccc(C(F)(F)F)cc3)c(OC)c2)[C@@H]1OC [Example 38] | 4 µM | 4 µM |  |
| CN(C)C(=N)NC(=N)N [Metformin, 3-(diaminomethylidene)-1,1-dimethylguanidine] |  |  | do not show significant anti-proliferative activity |

Further lines, with some results ahead:

| IC50 [1] | Compound | IC50 [2] | anti-proliferative activity on its own [3] |
| --- | --- | --- | --- |
| 5 µM | COC(=O)[C@H]1[C@H]2C[C@@H]3c4[nH]c5cc(OC)ccc5c4CCN3C[C@H]2C[C@@H](OC(=O)c2cc(OC)c(OC(=O)OCc3cccc4ccccc34)c(OC)c2)[C@@H]1OC [Example 34] | 7.5 µM |  |
| 2 µM | COC(=O)[C@H]1[C@H]2C[C@@H]3c4[nH]c5cc(OC)ccc5c4CCN3C[C@H]2C[C@@H](OC(=O)c2cc(OC)c(OC(=O)OCc3cccc(Cl)c3)c(OC)c2)[C@@H]1OC [Example 35] | 2 µM |  |
| 3 µM | COC(=O)[C@H]1[C@H]2C[C@@H]3c4[nH]c5cc(OC)ccc5c4CCN3C[C@H]2C[C@@H](OC(=O)c2cc(OC)c(OC(=O)OCc3ccc(F)cc3)c(OC)c2)[C@@H]1OC [Example 36] | 2.5 µM |  |
